# From patent publication US7763657B2, “Compounds, isomer thereof, or pharmaceutically acceptable salts thereof as vanilloid receptor antagonist; and pharmaceutical compositions containing the same” (Amorepacific Corporation, priority 2005, dated 2010)
# Columns and labels:
# Male ICR mice = test: Analgesic activity test: mouse writhing test by inducing with phenyl-p-quinone; type: in vivo; settings: ip, 0.5 h, number of writhes vs control, read-out: Analgesic effect (% Inhibition); for inhibition in vivo at 1 mg/kg: Dose 1 mg/kg intraperitoneally 30 min before phenyl-p-quinone
# Description: 3. Analgesic Activity Test: Mouse Writhing Test by Inducing with phenyl-p-quinone
# Male ICR mice (mean body weight 25 g) were maintained in a controlled lighting environment (12 h on/12 h off) for experiment. Animals received an intraperitoneal injection of 0.3 ml of the chemical irritant phenyl-p-quinone (dissolved in saline containing 5% ethanol to be a dose of 4.5 mg/kg) and 6 mins later, the number of abdominal constrictions was counted in the subsequent 6 mins period. Animals (10 animals/group) received 0.2 ml of test compounds solution in vehicle of ethanol/Tween 80/saline (10/10/80) intraperitoneally 30 min before the injection of phenyl-p-quinone. A reduction in the number of writhes responding to the test drug compound relative to the number responding in saline control group was considered to be indicative of an analgesic effect. Analgesic effect was calculated by % inhibition equation (% inhibition=(C−T)/C×100), wherein C and T represent the number of writhes in control and compound-treated group, respectively (Table 3).
# vanilloid receptor = target: T1, vanilloid receptor (Rattus norvegicus, UniProt O35433); test: 45Ca influx test (calcium uptake) in primary cultured DRG neurons, antagonism of capsaicin; type: cell-based; settings: neonatal SD rat DRG nerve cells; capsaicin 0.5 μM; 45Ca 10 μCi/ml; 10 mins room temperature; read-out: Antagonist Calcium Uptake Test (IC50)
# T1 construct: DRG nerve cells from the primary culture of 2 days were equilibrated; endogenous in cells; host or cells: primary cultured dorsal root ganglion neurons of neonatal SD rats
# Description: 1) Separation of Spinal Dorsal Root Ganglia (DRG) in Newborn Rats and Primary Culture Thereof
# Neonatal (2-3 day old or younger than 2-3 day old) SD rats were put in ice for 5 minutes to anesthetize and disinfected with 70% ethanol. […] The DRG were incubated sequentially at 37° C. for 30 min in 200 U/ml collagenase and 2.5 mg/ml trypsin, separately. The ganglia were washed twice with DME/F12 medium supplemented with 10% horse serum, triturated through a fire-polished Pasteur pipette, filtered through Nitex 80 membrane to obtain single cell suspension and the suspension was washed once more. This was subjected to centrifugation, then resuspended in cell culture medium at certain level of cell density. As the cell culture medium, DME/F12 medium supplemented with 10% horse serum was diluted with identical medium conditioned by C6 glioma cells 2 days on a confluent monolayer (1:1), and NGF (Nerve Growth Factor) was added to adjust 200 ng/ml as final concentration. After the cells were grown 2 days in medium where cytosine arabinoside (Ara-C, 100 μM) was added to kill dividing nonneuronal cells, medium was changed to one without Ara-C. The resuspended cells were plated at a density of 1500-2000 neurons/well onto Terasaki plates previously coated with 10 μg/ml poly-D-ornithine.
# 2) ^45Ca Influx Experiments
# DRG nerve cells from the primary culture of 2 days were equilibrated by washing 4 times with HEPES (10 mM, pH 7.4)-buffered Ca^2+, Mg^2+-free HBSS (H—HBSS). The solution in each well was removed from the individual well. Medium containing the test compound plus capsaicin (final concentration 0.5 μM) and ^45Ca (final concentration 10 μCi/ml) in H—HBSS was added to each well and incubated at room temperature for 10 mins. Terasaki plates were washed five times with H—HBSS and dried at room temperature. To each well, 0.3% SDS (10 μl) was added to elute ^45Ca. After the addition of scintillation cocktail of into each well, the amount of ^45Ca influx into neuron was measured by counting radioactivity.
# T1 sequence (O35433 whole entry): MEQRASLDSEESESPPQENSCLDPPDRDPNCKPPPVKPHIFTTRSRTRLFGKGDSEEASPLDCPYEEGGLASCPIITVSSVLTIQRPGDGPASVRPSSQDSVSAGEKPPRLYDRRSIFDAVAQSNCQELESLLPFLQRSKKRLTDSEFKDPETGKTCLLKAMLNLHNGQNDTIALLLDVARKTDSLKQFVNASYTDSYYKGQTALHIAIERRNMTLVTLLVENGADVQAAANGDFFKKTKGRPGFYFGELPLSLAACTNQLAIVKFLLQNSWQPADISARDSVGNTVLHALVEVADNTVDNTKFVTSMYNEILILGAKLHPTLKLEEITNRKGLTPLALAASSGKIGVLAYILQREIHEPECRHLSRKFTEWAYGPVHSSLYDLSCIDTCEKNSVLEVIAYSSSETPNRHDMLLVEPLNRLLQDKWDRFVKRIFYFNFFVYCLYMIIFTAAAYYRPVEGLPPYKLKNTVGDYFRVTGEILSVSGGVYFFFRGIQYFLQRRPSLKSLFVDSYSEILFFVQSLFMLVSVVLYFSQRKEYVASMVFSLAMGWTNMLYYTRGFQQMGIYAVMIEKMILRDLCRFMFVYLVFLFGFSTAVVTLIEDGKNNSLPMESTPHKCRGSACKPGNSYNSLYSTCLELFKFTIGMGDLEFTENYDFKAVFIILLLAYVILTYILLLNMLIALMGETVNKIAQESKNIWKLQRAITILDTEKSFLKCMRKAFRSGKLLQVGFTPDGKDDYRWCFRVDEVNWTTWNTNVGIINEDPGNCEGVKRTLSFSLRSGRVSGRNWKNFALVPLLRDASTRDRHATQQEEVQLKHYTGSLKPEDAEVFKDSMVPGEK
IC50 (vanilloid receptor) [nM],SMILES,inhibition in vivo at 0.3 mg/kg (Male ICR mice; Dose 0.3 mg/kg intraperitoneally 30 min before phenyl-p-quinone) [%],inhibition in vivo at 1 mg/kg (Male ICR mice) [%]
98,"C=Cc1cc(CNC(=O)NCc2ccc(C(C)(C)C)cc2)cc(F)c1NS(C)(=O)=O [Example 2, N-{4-[3-(4-t-butylbenzyl)ureidomethyl]-2-fluoro-6-vinylphenyl}methanesulfonamide]",57,
82,"C=Cc1cc([C@@H](C)NC(=O)NCc2ccc(C(C)(C)C)cc2)ccc1NS(C)(=O)=O [Example 6, N-(4-{1-(R)-[3-(4-t-butylbenzyl)ureido]ethyl}-2-vinylphenyl)methanesulfonamide]",,56
50,"C=Cc1cc([C@@H](C)NC(=O)/C=C/c2ccc(C(C)(C)C)cc2)ccc1NS(C)(=O)=O [Example 14, 3-(4-t-butylphenyl)-N-[1-(R)-(4-methanesulfonylamino-3-vinylphenyl)ethyl]acrylamide]",,58
34,"C=Cc1cc(CNC(=O)/C=C/c2ccc(C(C)(C)C)cc2)cc(F)c1NS(C)(=O)=O [Example 15, 3-(4-t-butylphenyl)-N-(3-fluoro-4-methanesulfonylamino-5-vinylbenzyl)acrylamide]",,60
47,"C#Cc1cc(CNC(=O)/C=C/c2ccc(C(C)(C)C)cc2)cc(F)c1NS(C)(=O)=O [Example 16, 3-(4-t-butylphenyl)-N-(3-fluoro-5-ethynyl-4-methanesulfonylamino-benzyl)acrylamide]",,68
58,"C=Cc1cc(CNC(=O)/C=C/c2ccc(C(C)(C)C)cc2)ccc1NS(C)(=O)=O [Example 17, 3-(4-t-butylphenyl)-N-(4-methanesulfonylamino-3-vinylbenzyl)acryl amide]",,63
,"C=Cc1cc(CNC(=O)/C=C/c2ccc(C(C)(C)C)cc2N2CCN(C)CC2)cc(F)c1NS(C)(=O)=O [Example 25, 3-[4-tert-Butyl-2-(4-methylpiperazin-1-yl)phenyl]-N-(3-fluoro-4-methanesulfonylamino-5-vinylbenzyl)acrylamide]",,64
43,"C=Cc1cc(CNC(=O)CCc2ccc(C(C)(C)C)cc2OC2CCOCC2)cc(F)c1NS(C)(=O)=O [Example 41, 3-[4-tert-Butyl-2-(tetrahydropyran-4-yloxy)phenyl]-N-(3-fluoro-4-methanesulfonylamino-5-vinylbenzyl)propionamide]",,44
63,"C=Cc1cc(CNC(=O)CCc2ccc(C(C)(C)C)cc2)ccc1NS(C)(=O)=O [Example 45, 3-[4-(tert-butyl)phenyl]-N-[4-(methanesulfonylamino)-3-vinylbenzyl]propionamide]",,82
25,"C=Cc1cc(CNC(=O)CCc2ccc(C(C)(C)C)cc2)cc(F)c1NS(C)(=O)=O [Example 46, 3-[4-(tert-butyl)phenyl]-N-[3-fluoro-4-(methanesulfonylamino)-5-vinylbenzyl]propionamide]",,43
